Assay results from patent KR20130112248A, “피라졸로피리미딘 유도체 화합물, 이를 포함하는 산화질소 생성 억제용 조성물 및 뇌신경 질환 예방 및 치료용 약학적 조성물” (한국과학기술연구원, priority 2012, dated 2013).

Tested on: NO production in BV-2 cells [NO 생성; BV-2 세포]
Assay: Nitric oxide (NO) quantification (nitrite, Griess reaction) in LPS-activated BV-2 cells
Assay type: cell-based
Conditions: LPS 0.2 ㎍/mL, 24 h co-treatment, nitrite by Griess at 540 nm
[1] = Mus musculus, BV-2, 24 h, 20 μM

Row | SMILES | activity at 20 µM [1] [%] | other results
1 | COc1ccc(CNc2nc(S(C)(=O)=O)nc3c2cnn3-c2ccc(C)cc2)cc1 [화합물 23o, N-(4-메톡시벤질)-6-(메틸설포닐)-1-p-톨릴-1H-피라졸로[3,4-d]피리미딘-4-아민] | 30 ± 2.4 | –
2 | CSc1nc(SCC(C)C)c2cnn(Cc3ccccc3)c2n1 [화합물 16n, 1-벤질-4-(이소부틸티오)-6-(메틸티오)-1H-피라졸로[3,4-d]피리미딘] | 56 ± 4.5 | –
3 | COc1cccc(CCn2ncc3c(NCc4ccccc4Cl)nc(SC)nc32)c1 [화합물 18a, N-(2-클로로벤질)-1-(3-메톡시펜에틸)-6-(메틸티오)-1H-피라졸로[3,4-d]피리미딘-4-아민] | 43 ± 18.1 | –
4 | CSc1nc(N2CCCCC2)c2cn[nH]c2n1 [6s, 4-피페리디노-6-(메틸티오)피라졸로[3,4-d]피리미딘] | 85 ± 15 | –
5 | CSc1nc(NCc2ccccc2C)c2cnn(Cc3ccccc3)c2n1 [화합물 16f, 1-벤질-4-(2-메틸벤질)아미노-6-(메틸티오)피라졸로[3,4-d]피리미딘] | 35 ± 6 | –
6 | COc1cccc(CCn2ncc3c(NCc4ccccc4Cl)nc([S+](C)[O-])nc32)c1 (centres unmarked) [화합물 22k, N-(2-클로로벤질)-1-(3-메톡시펜에틸)-6-(메틸설파이닐)-1H-피라졸로[3,4-d]피리미딘-4-아민] | 58 ± 2 | –
7 | COc1ccccc1CCn1ncc2c(NCc3ccccc3C)nc(SC)nc21 [화합물 19g, N-(2-메톡시벤질)-1-(2-메톡시펜에틸)-6-(메틸티오)-1H-피라졸로[3,4-d]피리미딘-4-아민] | 27.4 ± 0.7 | –
8 | COc1nc(SC)nc2c1cnn2CCO [화합물 27f, 2-(4-메톡시-6-(메틸티오)-1H-피라졸로[3,4-d]피리미딘-1-일)에탄올] | 86 ± 3 | –
9 | CSc1nc(Sc2ccc(C)cc2)c2cnn(Cc3ccccc3)c2n1 [화합물 16p, 4-(p-톨릴티오)-1-벤질-6-(메틸티오)-1H-피라졸로[3,4-d]피리미딘] | 34 ± 1.7 | –
10 | COc1ccccc1CCn1ncc2c(NCc3ccc(F)cc3)nc(SC)nc21 [화합물 19d, 1-(2-메톡시펜에틸)-N-(4-플루오로벤질)-6-(메틸티오)-1H-피라졸로[3,4-d]피리미딘-4-아민] | 40 ± 1.1 | –
11 | C=CCn1ncc2c(NCc3ccccn3)nc(SC)nc21 [화합물 13n, 1-알릴-6-(메틸티오)-N-((피리딘-2-일)메틸)-1H-피라졸로[3,4-d]피리미딘-4-아민] | 17.6 ± 0.7 | –
12 | CC(Nc1nc(S(C)(=O)=O)nc2c1cnn2Cc1ccccc1)c1ccccc1 (centres unmarked) [화합물 23p, 1-벤질-6-(메틸설포닐)-N-(1-페닐에틸)-1H-피라졸로[3,4-d]피리미딘-4-아민] | 40 ± 4.9 | –
13 | CSc1nc(NCc2ccccc2C)c2cnn(-c3ccccc3)c2n1 [화합물 15o, 1-페닐-4-(2-메틸벤질)아미노-6-(메틸티오)피라졸로[3,4-d]피리미딘] | 57 ± 1 | –
14 | CCCCNc1nc(S(C)(=O)=O)nc2c1cnn2-c1ccccc1 [화합물 23a, N-뷰틸-6-(메틸설포닐)-1-페닐-1H-피라졸로[3,4-d]피리미딘-4-아민] | 40 ± 7.1 | –
15 | CSc1nc(NCc2ccccc2)c2cnn(CCNC(=O)OC(C)(C)C)c2n1 [화합물 14a, 1-(N-t-Boc-아미노에틸)-4-벤질아미노-6-(메틸티오)피라졸로[3,4-d]피리미딘] | 58 ± 6 | –
16 | COc1ccccc1CNc1nc(S(C)(=O)=O)nc2c1cnn2-c1ccccc1 [화합물 23c, N-(2-메톡시벤질)-6-(메틸설포닐)-1-페닐-1H-피라졸로[3,4-d]피리미딘-4-아민] | 41 ± 2.3 | –
17 | COc1ccc(CNc2nc(SC)nc3c2cnn3CCc2cccc(OC)c2)cc1 [화합물 18e, 1-(3-메톡시펜에틸)-N-(4-메톡시벤질)-6-(메틸티오)-1H-피라졸로[3,4-d]피리미딘-4-아민] | 44 ± 1.3 | –
18 | COc1cccc(CCn2ncc3c(NCc4cccc(OC)c4)nc(SC)nc32)c1 [화합물 18d, N-(3-메톡시벤질)-1-(3-메톡시펜에틸)-6-(메틸티오)-1H-피라졸로[3,4-d]피리미딘-4-아민] | 39 ± 4.8 | –
19 | CSc1nc(NCc2ccccc2Cl)c2cn[nH]c2n1 [6w, N-(2-클로로벤질)-6-(메틸티오)-1H-피라졸로[3,4-d]피리미딘-4-아민] | 46 ± 2.9 | –
20 | COc1cccc(CCn2ncc3c(Cl)nc(SC)nc32)c1 [5j, 1-(3-메톡시펜에틸)-4-클로로-6-(메틸티오)-1H-피라졸로[3,4-d]피리미딘] | 5 ± 49.7 | –
21 | CC(Nc1nc([S+](C)[O-])nc2c1cnn2Cc1ccccc1)c1ccccc1 (centres unmarked) [화합물 22i, 1-벤질-6-(메틸설파이닐)-N-(1-페닐에틸)-1H-피라졸로[3,4-d]피리미딘-4-아민] | – | NO (% of LPS) (20 μM, 1440 min): 81±7.5 % of LPS

Row | SMILES | activity at 20 µM [1] [%] | other results
22 | CS(=O)(=O)c1nc(NC(c2ccccc2)c2ccc(Cl)cc2)c2cnn(-c3ccccc3)c2n1 (centres unmarked) [화합물 23e, N-((4-클로로페닐)(페닐)메틸)-6-(메틸설포닐)-1-페닐-1H-피라졸로[3,4-d]피리미딘-4-아민] | 36 ± 3.6 | –
23 | CSc1nc(NC(c2ccccc2)c2ccc(Cl)cc2)c2cnn(-c3ccccc3)c2n1 (centres unmarked) [화합물 15z, N-((4-클로로페닐)(페닐)메틸)-6-(메틸티오)-1-페닐-1H-피라졸로[3,4-d]피리미딘-4-아민] | 46 ± 0.6 | –
24 | COc1ccccc1CNc1nc(SC)nc2c1cnn2-c1ccc(F)cc1 [화합물 20b, N-(2-메톡시벤질)-1-(4-플루오로페닐)-6-(메틸티오)-1H-피라졸로[3,4-d]피리미딘-4-아민] | 48 ± 27.1 | –
25 | C=CCNc1nc(SC)nc2c1cnn2CCc1ccccc1OC [화합물 19f, 1-(2-메톡시펜에틸)-N-알릴-6-(메틸티오)-1H-피라졸로[3,4-d]피리미딘-4-아민] | 75 ± 8.7 | –
26 | Cc1ccc(C(C)Nc2nc(S(C)(=O)=O)nc3c2cnn3Cc2ccccc2)cc1 (centres unmarked) [화합물 23u, 1-벤질-6-(메틸설포닐)-N-(1-p-톨릴에틸)-1H-피라졸로[3,4-d]피리미딘-4-아민] | 120 ± 3.1 | –
27 | CSc1nc(NCc2ccccc2C)c2cn[nH]c2n1 [6r, 4-(2-메틸벤질)아미노-6-(메틸티오)피라졸로[3,4-d]피리미딘] | 64 ± 3 | –
28 | CCCCSc1nc(SC)nc2c1cnn2Cc1ccccc1 [화합물 16m, 1-벤질-4-(뷰틸티오)-6-(메틸티오)-1H-피라졸로[3,4-d]피리미딘] | 58 ± 1.9 | –
29 | CSc1nc(NCc2ccccc2Cl)c2cnn(C(C)(C)C)c2n1 [화합물 17n, N-(2-클로로벤질)-1-t-뷰틸-6-(메틸티오)-1H-피라졸로[3,4-d]피리미딘-4-아민] | 38 ± 2.9 | –
30 | CCN(CC)c1nc(SC)nc2[nH]ncc12 [6u, 4-다이에틸아미노-6-(메틸티오)피라졸로[3,4-d]피리미딘] | 87 ± 8 | –
31 | CSc1nc(NC(C)(C)CO)c2cnn(C)c2n1 [12b, 1-메틸-4-[(1-하이드록시-2,2-다이메틸)에틸]아미노-6-(메틸티오)피라졸로[3,4-d]피리미딘] | 90 ± 7 | –
32 | C=CCSc1nc(SC)nc2c1cnn2-c1ccccc1 [화합물 25b, 1-페닐-4-알릴티오-6-(메틸티오)피라졸로[3,4-d]피리미딘] | 89 ± 6 | –
33 | CSc1nc(NC(C)C2CCCCC2)c2cnn(Cc3ccccc3)c2n1 (centres unmarked) [화합물 16z, 1-벤질-N-(1-사이클로헥실에틸)-6-(메틸티오)-1H-피라졸로[3,4-d]피리미딘-4-아민] | 26 ± 2.4 | –
34 | COc1cccc(CNc2nc(SC)nc3c2cnn3CCO)c1 [화합물 27d, 1-(1-하이드록시에틸)-4-(3-메톡시벤질)아미노-6-(메틸티오)피라졸로[3,4-d]피리미딘] | 49 ± 12 | –
35 | Cc1ccc(C(C)Nc2nc(S(C)(=O)=O)nc3c2cnn3-c2ccccc2)cc1 (centres unmarked) [화합물 23g, 6-(메틸설포닐)-1-페닐-N-(1-p-톨릴에틸)-1H-피라졸로[3,4-d]피리미딘-4-아민] | 46 ± 3.9 | –
36 | C=CCNc1nc(SC)nc2c1cnn2Cc1ccccc1 [화합물 16h, 1-벤질-4-알릴아미노-6-(메틸티오)피라졸로[3,4-d]피리미딘] | 66 ± 9 | –
37 | C=CCNc1nc(SC)nc2[nH]ncc12 [6b, 4-알릴아미노-6-(메틸티오)피라졸로[3,4-d]피리미딘] | 100 ± 4 | –
38 | CCOc1nc(SC)nc2[nH]ncc12 [10b, 4-에톡시-6-(메틸티오)피라졸로[3,4-d]피리미딘] | – | activity at 30 µM (Mus musculus, BV-2, 24 h, 30 μM): 93 ± 9%
39 | COc1cccc(CNc2nc(SC)nc3c2cnn3CCNC(=O)OC(C)(C)C)c1 [화합물 14d, 1-(N-t-Boc-아미노에틸)-4-(3-메톡시벤질)아미노-6-(메틸티오)피라졸로[3,4-d]피리미딘] | 49 ± 12 | –
40 | CSc1nc(N[C@H](C)c2ccccc2)c2cnn(C(C)(C)C)c2n1 [화합물 17b, (R)-1-t-뷰틸-4-(1-페닐에틸)아미노-6-(메틸티오)피라졸로[3,4-d]피리미딘] | 61 ± 1 | –
41 | CC(Nc1nc(NCCOCCO)nc2c1cnn2Cc1ccccc1)c1ccccc1 (centres unmarked) [화합물 24d, 2-(2-(4-(1-페닐에틸아미노)-1-벤질-1H-피라졸로[3,4-d]피리미딘-6-일아미노)에톡시)에탄올] | 130 ± 1.8 | –
